Test results: paper PMC5767327, “Tonically Active α2 Subunit-Containing Glycine Receptors Regulate the Excitability of Striatal Medium Spiny Neurons” (Frontiers in Molecular Neuroscience, 2018)

Molecular target: T1, GlyR α2 (native α2 subunit-containing glycine receptors of striatal medium spiny neurons) (Mus musculus, UniProt Q7TNC8)
T1 construct: gene Glra2; native full-length receptor in adult dorsal striatal slices; α2 homomer or α2β heteromer (Glrb) not resolved by authors; no glycine current in Glra2 knockout MSNs
Assay: whole-cell patch clamp, evoked chloride current, fast perfusion, Hill fit
Format: cell-based
Conditions: read-out: STP MSNs (n = 6); agonist; STP MSNs (Drd2-EGFP) in acute striatal slices, native receptor; -80 mV, 32°C; with gabazine, CNQX, DHβE, L-689,560, TTX; authors call it a higher boundary (diffusion in slice)
Text: whole-cell patch clamp, evoked chloride current, fast perfusion, Hill fit on GlyR α2 (native α2 subunit-containing glycine receptors of striatal medium spiny neurons)

T1 sequence (Q7TNC8 28-452): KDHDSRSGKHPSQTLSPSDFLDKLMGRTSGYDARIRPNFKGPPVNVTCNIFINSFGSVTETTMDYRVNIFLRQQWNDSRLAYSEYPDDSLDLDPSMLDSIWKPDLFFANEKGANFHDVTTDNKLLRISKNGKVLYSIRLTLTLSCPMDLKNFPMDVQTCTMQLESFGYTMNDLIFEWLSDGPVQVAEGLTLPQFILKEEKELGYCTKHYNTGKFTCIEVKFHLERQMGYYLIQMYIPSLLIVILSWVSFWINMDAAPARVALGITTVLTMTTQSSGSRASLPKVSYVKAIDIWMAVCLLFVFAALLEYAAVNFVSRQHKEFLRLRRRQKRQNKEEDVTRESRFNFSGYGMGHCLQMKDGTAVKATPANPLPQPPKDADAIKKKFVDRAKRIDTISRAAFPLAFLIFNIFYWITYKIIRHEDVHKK

Question: With `NCC(=O)O` [glycine] as the compound, how does the EC50 read?
Answer: 317 ± 25.4 µM
